# Calls of active or inactive are those of the source. The rule behind the calls is not given here.
# Experiments:
# [1] = target: Transcriptional coactivator YAP1 (Homo sapiens) (UniProt P46937); experiment: Inhibition of YAP1 (unknown origin) assessed as disruption in YAP1/OCT4 interaction at 10 uM by ELISA relative to control
# [2] = target: Transcriptional coactivator YAP1 (Homo sapiens) (UniProt P46937); experiment: Inhibition of YAP1 (unknown origin) assessed as disruption in YAP1/OCT4 interaction at 50 uM by cell based assay
# [3] = Lipophilicity, logP of the compound; type: physicochemical; conditions: octanol/water
# [4] = target: Transcriptional coactivator YAP1 (Homo sapiens) (UniProt P46937); experiment: Inhibition of YAP1 in human NCI-H1650 cells assessed as disruption in YAP1/OCT4 interaction at 20 to 50 uM incubated for 48 hrs by proximity ligation assay; type: cell-based
# NCI-H1650 [5] = experiment: Inhibition of YAP1 in human NCI-H1650 cells assessed as disruption in YAP1/TEAD2 interaction at 20 to 50 uM incubated for 48 hrs by proximity ligation assay; type: cell-based
# NCI-H1650 [6] = experiment: Inhibition of self-renewal capacity in stem-like side-population cells of human NCI-H1650 cells assessed as reduction in number of spheres at 5 to 50 uM incubated for 10 days by sphere formation assay; type: functional, cell-based
# NCI-H1650 [7] = experiment: Cytotoxicity in human NCI-H1650 cells assessed as reduction in cell viability at 1 to 20 uM incubated for 72 hrs by MTT assay; type: functional, cell-based
# A549 = experiment: Cytotoxicity in human A549 cells assessed as reduction in cell viability at 1 to 20 uM incubated for 72 hrs by MTT assay; type: functional, cell-based
# NCI-H1650 [8] = experiment: Cytotoxicity in human NCI-H1650 cells assessed as reduction in cell viability at 20 to 50 uM incubated for 24 hrs followed by medium replacement with RPMI medium with 10% FCS for 48 hrs by MTT assay; type: functional, cell-based
# NCI-H1650 [9] = experiment: Cytotoxicity in human NCI-H1650 cells assessed as reduction in cell viability at 20 to 50 uM incubated for 72 hrs by MTT assay; type: functional, cell-based
# NCI-H2286 = experiment: Cytotoxicity in human NCI-H2286 cells assessed as reduction in cell viability at 5 to 50 uM incubated for 96 hrs by MTT assay; type: functional, cell-based
# NCI-H2170 = experiment: Cytotoxicity in human NCI-H2170 cells assessed as reduction in cell viability at 5 to 50 uM incubated for 96 hrs by MTT assay; type: functional, cell-based
# NCI-H1650 [10] = experiment: Cytotoxicity in human NCI-H1650 cells assessed as induction of cell killing in presence of cancer associated fibroblasts at 20 to 50 uM incubated for 24 to 48 hrs by cytotracker-red/green dye staining based immunofluorescence microscopy; type: functional
# [11] = Cytotoxicity in human cancer associated fibroblasts at 20 to 50 uM incubated for 24 to 48 hrs by cytotracker-red/green dye staining based immunofluorescence microscopy
# [12] = target: Transcriptional coactivator YAP1 (Homo sapiens) (UniProt P46937); experiment: Inhibition of YAP1 in human NCI-H1650 cells assessed as reduction in Sox2 protein expression at 10 uM incubated for 72 hrs by Western blot analysis; type: cell-based
# [13] = target: Transcriptional coactivator YAP1 (Homo sapiens) (UniProt P46937); experiment: Inhibition of YAP1 in human NCI-H1650 cells assessed as reduction in c-Myc protein expression at 10 uM incubated for 72 hrs by Western blot analysis; type: cell-based
# [14] = target: Transcriptional coactivator YAP1 (Homo sapiens) (UniProt P46937); experiment: Inhibition of YAP1 in human NCI-H1650 cells assessed as reduction in PDK2 protein expression at 10 uM incubated for 72 hrs by Western blot analysis; type: cell-based
# [15] = target: Transcriptional coactivator YAP1 (Homo sapiens) (UniProt P46937); experiment: Inhibition of YAP1 in human A549 cells assessed as reduction in Sox2 protein expression at 10 uM incubated for 72 hrs by Western blot analysis; type: cell-based
# [16] = target: Transcriptional coactivator YAP1 (Homo sapiens) (UniProt P46937); experiment: Inhibition of YAP1 in human A549 cells assessed as reduction in c-Myc protein expression at 10 uM incubated for 72 hrs by Western blot analysis; type: cell-based
# [17] = target: Transcriptional coactivator YAP1 (Homo sapiens) (UniProt P46937); experiment: Inhibition of YAP1 in human A549 cells assessed as reduction in PDK2 protein expression at 10 uM incubated for 72 hrs by Western blot analysis; type: cell-based
# NCI-H1650 [18] = experiment: Inhibition of adherence-independent cell growth in human NCI-H1650 cells at 5 uM incubated for 33 days; type: functional, cell-based
# NCI-H1650 [19] = experiment: Inhibition of adherence-independent cell growth in human NCI-H1650 cells at 10 uM incubated for 33 days; type: functional, cell-based
# NCI-H1703 [20] = experiment: Inhibition of adherence-independent cell growth in human NCI-H1703 cells at 10 uM incubated for 33 days; type: functional, cell-based
# NCI-H1703 [21] = experiment: Inhibition of adherence-independent cell growth in human NCI-H1703 cells at 5 uM incubated for 33 days; type: functional, cell-based
# Chain of Transcriptional coactivator YAP1 (Homo sapiens) (P46937 whole entry): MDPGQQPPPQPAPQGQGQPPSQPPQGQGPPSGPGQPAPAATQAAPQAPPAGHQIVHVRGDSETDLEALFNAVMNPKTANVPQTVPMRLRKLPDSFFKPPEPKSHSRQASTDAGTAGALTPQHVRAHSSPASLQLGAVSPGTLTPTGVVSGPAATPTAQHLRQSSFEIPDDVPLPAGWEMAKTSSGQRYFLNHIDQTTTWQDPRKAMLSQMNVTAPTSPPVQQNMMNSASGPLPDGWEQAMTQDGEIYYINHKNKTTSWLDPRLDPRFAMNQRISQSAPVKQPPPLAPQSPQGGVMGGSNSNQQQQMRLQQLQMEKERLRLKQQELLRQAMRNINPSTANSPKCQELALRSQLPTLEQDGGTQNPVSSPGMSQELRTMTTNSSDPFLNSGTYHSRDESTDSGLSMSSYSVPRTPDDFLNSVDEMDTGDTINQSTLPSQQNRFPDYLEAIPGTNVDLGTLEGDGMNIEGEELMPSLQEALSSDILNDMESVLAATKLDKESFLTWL
SMILES,inhibition (NCI-H1650 [6]),Activity (NCI-H1650 [7]),Activity (A549),Activity (NCI-H2286),Activity (NCI-H2170),inhibition [12],inhibition [13],inhibition [14],inhibition [15],inhibition [16],inhibition [17],also measured
COC(=O)[C@H](Cc1ccc(OCc2ccccc2)cc1)NC(=O)CC1CCN(C(=O)CCc2ccccc2)CC1,Active,Active,Active,Active,Active,–,–,–,–,–,–,inhibition [1]: 90%; inhibition [2]: 90%; logP [3]: 4.7; inhibition [4]: Active; inhibition (NCI-H1650 [5]): Active; Activity (NCI-H1650 [8]): Active; Activity (NCI-H1650 [9]): Active; Activity (NCI-H1650 [10]): Active; Activity [11]: Non-Toxic
COC(=O)[C@H](Cc1ccc(OCc2ccccc2)cc1)NC(=O)CC1CCN(C(=O)c2ccc(NC(=O)OC(C)(C)C)cc2)CC1,–,–,–,–,–,Active,Active,Active,Active,Active,Active,inhibition (NCI-H1650 [18]): Active; inhibition (NCI-H1650 [19]): Active; inhibition (NCI-H1703 [20]): Active; inhibition (NCI-H1703 [21]): Active
COC(=O)[C@H](Cc1ccc(OCc2ccccc2)cc1)NC(=O)CC1CCN(C(=O)CCc2cc(OC)c(OC)c(OC)c2)CC1,Active,Active,Active,Active,Active,–,–,–,–,–,–,–
COC(=O)[C@H](Cc1ccc(OCc2ccccc2)cc1)NC(=O)CC1CCN(C(=O)Cc2ccc(NC(=O)OC(C)(C)C)cc2)CC1,–,–,–,–,–,Active,Active,Active,Active,Active,Active,–

# — ChEMBL document CHEMBL4419178, “Yap1 inhibitors that target the interaction of yap1 with oct4” (2018)
